In patent publication US20190231751A1, “TREATMENT OF FIBROTIC DISORDERS WITH JUN N-TERMINAL KINASE INHIBITORS” (Imago Pharmaceuticals, Inc., priority 2016, published 2019):

Tests used:
[1] = test system: bleomycin-induced lung fibrosis; assay: Mouse bleomycin-induced lung fibrosis model, therapeutic study; assay type: in vivo; settings: 30 mg/kg b.i.d. oral gavage starting 7 days after bleomycin; male and female mice; 14 days
Experimental: Age and gender-matched wild type mice on the C57BL/6 background were utilized for this study, as outlined in Table 3: Mice were housed in a sterile barrier facility and given a single inhaled dose of 1.25 Units/kg pharmacologic grade bleomycin (Teva Pharmaceuticals, Israel) in a volume of 50 μl. Mice received twice daily administered IGP001, via oral gavage, on a b.i.d. schedule starting 7 days after bleomycin treatment in this therapeutic study. Mice were sacrificed at 14 days following the administration of bleomycin and assessed as appropriate for deposited collagen in the lungs using Masson's Trichrome stain.

[2] = test system: transgenic SREBP-1c model of NASH; assay: Transgenic SREBP-1c model of NASH; assay type: in vivo, mice; settings: 10 mg/kg/day p.o.
Experimental: The ability of IGP001 and IGP002 are tested in the transgenic SREBP-1c model of NASH. SREBP-1c is a lipogenic transcription factor, and overexpression creates a model of congenital lipodystrophy in which severe insulin resistance and diabetes develop secondary to impaired adipose differentiation (Shimomura I et al., Genes Dev 1998; 12: 3182-3194). In these mice, decreased fat tissue with lipid accumulation in the liver is observed, and marked hepatic steatosis occurs by […] of age. When fed a standard diet, steatosis, lobular inflammation, and perivenular and pericellular fibrosis develop at 20 weeks (Nakayama H, et al., Metabolism 2007; 56: 470-475; Takahashi Y, World J Gastroenterol. 2012 May 21; 18(19): 2300-2308).

JNK1 = JNK1 (Homo sapiens, UniProt P45983); assay: In vitro JNK1 inhibition (Table 1); assay type: biochemical
Sequence of JNK1 (P45983 whole entry, species assumed): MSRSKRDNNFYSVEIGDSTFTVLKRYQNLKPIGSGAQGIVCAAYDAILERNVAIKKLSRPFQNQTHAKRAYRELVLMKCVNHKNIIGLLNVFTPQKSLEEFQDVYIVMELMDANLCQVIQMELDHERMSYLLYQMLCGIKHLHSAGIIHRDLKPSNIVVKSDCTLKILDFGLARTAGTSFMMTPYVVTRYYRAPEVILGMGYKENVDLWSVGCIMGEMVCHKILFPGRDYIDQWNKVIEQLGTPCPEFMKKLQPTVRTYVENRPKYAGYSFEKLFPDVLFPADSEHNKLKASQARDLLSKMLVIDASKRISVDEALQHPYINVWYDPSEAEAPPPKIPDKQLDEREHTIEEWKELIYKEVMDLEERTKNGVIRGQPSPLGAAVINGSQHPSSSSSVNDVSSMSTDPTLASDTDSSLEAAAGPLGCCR
Experimental: (§1) In vitro assays for the determination of JNK activities are known in the art and exemplary assay formats are described herein.
(§2) IC50 values in Table 1 were determined using the procedures as described in U.S. Pat. No. 8,450,353.

[3] = test system: bleomycin-induced lung fibrosis; assay: Mouse bleomycin-induced lung fibrosis model, preventative study; assay type: in vivo; settings: 10 mg/kg and 30 mg/kg b.i.d. oral gavage starting prior to bleomycin; 14 days
Experimental: Age and gender-matched wild type mice on the C57BL/6 background were utilized for this study, which is outlined in Table 1: Mice are housed in a sterile barrier facility at the Yale University School of Medicine and all proposed procedures are approved on existing mouse protocols. Mice were given a single inhaled dose of 1.25 Units/kg pharmacologic grade bleomycin (Teva Pharmaceuticals, Israel) in a volume of 50 μl. Mice received twice daily administered IGP001, via oral gavage, on a b.i.d. schedule starting prior to bleomycin treatment in this preventative study. Mice were sacrificed at 14 days following the administration of bleomycin and assessed as appropriate for the outcomes shown in Table 2: Briefly, lung inflammation was assessed by Bronchoalveolar lavage cell counts. Total soluble lung collagen will be quantified using Sircol Assay (Biocolour, Ireland). Formalin fixed, paraffin embedded mouse lung sections were stained with hematoxylin and eosin to assess gross morphology, morphometry, and Ashcroft scores and with Masson's trichrome stains to visualize collagen deposition.

JNK = assay: TGF-β1-induced JNK activation in human lung fibroblasts (Western blot); assay type: cell-based; settings: HFL-1 cells; compound 30 minutes, then TGF-β1 1 ng/ml 30 minutes
Experimental: IGP001 and IGP002 are shown to affect TGF-β1-induced MAP kinase activities in human lung fibroblasts. Human fetal lung fibroblasts (HFL-1) (ATCC, Rockville, Md.) are cultured in Ham's F12K medium (American Type Culture Collection) supplemented with 50 U/ml penicillin G sodium, 50 μg/ml streptonycin sulfate (GIBCO BRL, Life Technologies, Inc., Rockville, Md.) and 10% fetal bovine serum (FBS; Equitech-Bio. Inc., Ingram, Tex.) and maintained in humidified 5% CO2 at 37° C. After reaching confluence, the serum content of the medium is reduced to 0.4% FBS for 24 h. The cells are then stimulated with 1 ng/ml TGF-β1 to produce CTGF.
To test the ability of IGP001 and IGP002 to suppress activation of JNK, HFL-1 cells are cultured with 0.1% DMSO (control vehicle), IGP001 or IGP002 at a concentration of […] for 30 minutes, followed by stimulation with TGF-β1 (1 ng/ml) for 30 minutes. Activities of JNK, p38 MAP kinase and ERK are determined by Western blotting whole cell lysates using antibodies specific for phosphorylated, activated forms of JNK, p38 MAP kinase, and ERK. […]
Phosphorylated JNK protein levels are quantified by densitometry. The optical density of the p46 and p54 phosphorylated protein band are corrected for total p46 and p54 protein, respectively, and results are expressed as ratio (%) of control value (TGF-β1-stimulated HFL-1 cells).

[4] = test system: thioacetamide-induced liver fibrosis; assay: Thioacetamide-induced rat model of liver fibrosis; assay type: in vivo; settings: 10 mg/kg/day p.o.
Experimental: The antifibrotic effects of IGP001 and IGP002 are also evaluated in a thioacetamide-induced rat model of liver fibrosis. Study assessments include body and liver/kidney weight, liver function test, liver/kidney morphology and collagen deposition, fibrogenic gene and protein expression, and pharmacokinetic analyses.

[5] = Rat PK/PD study: plasma compound levels by LC/MS; assay type: in vivo; settings: female Wistar rats; kainic acid 60 minutes after compound; blood 4 hours post kainic acid
Experimental: Plasma compound levels for two of the JNK inhibitors, IGP001 (Formula (XXI)) and IGP002 (Formula (XXII)), were obtained using a rat model for pharmaceutical administration of the compounds. Female Wistar rats, 7-9 weeks old, were obtained (SLAC Laboratory Animal Co. Ltd., Shanghai, China), and three groups of animals (n=3 each) received 1) kainic acid and 2) either IGP001 in vehicle, IGP002 in vehicle, or vehicle alone. The animals received the kainic acid 60 minutes after they received the IGP001 in vehicle, IGP002 in vehicle, and or vehicle alone.
For administration, the kainic acid was dissolved in saline, and introduced to the rats using the protocol as generally disclosed in Tse K, Puttachary S, Beamer E, Sills G J, Thippeswamy T (2014) PLoS One 9:e96622. Animals in each group were surgically implanted with catheters in carotid artery using polyurethane tubing and heparin (50 IU/mL)/glucose (50%) solutions as the lumen lock solution. Anaesthetic barbital was used during the surgery. The animals were allowed to recover seven days after surgery.
The animals were euthanized 4 hours post kainic acid administration using CO2 inhalation and blood was collected via cardiac puncture. 5 mL blood was transferred into pre-labled plastic microcentrifuge tubes containing K2-EDTA (0.5M) as anti-coagulant. Plasma levels were determined by a validated LC/MS analysis.

JNK2 = JNK2 (Homo sapiens, UniProt P45984); assay: In vitro JNK2 inhibition (Table 1); assay type: biochemical
Sequence of JNK2 (P45984 whole entry, species assumed): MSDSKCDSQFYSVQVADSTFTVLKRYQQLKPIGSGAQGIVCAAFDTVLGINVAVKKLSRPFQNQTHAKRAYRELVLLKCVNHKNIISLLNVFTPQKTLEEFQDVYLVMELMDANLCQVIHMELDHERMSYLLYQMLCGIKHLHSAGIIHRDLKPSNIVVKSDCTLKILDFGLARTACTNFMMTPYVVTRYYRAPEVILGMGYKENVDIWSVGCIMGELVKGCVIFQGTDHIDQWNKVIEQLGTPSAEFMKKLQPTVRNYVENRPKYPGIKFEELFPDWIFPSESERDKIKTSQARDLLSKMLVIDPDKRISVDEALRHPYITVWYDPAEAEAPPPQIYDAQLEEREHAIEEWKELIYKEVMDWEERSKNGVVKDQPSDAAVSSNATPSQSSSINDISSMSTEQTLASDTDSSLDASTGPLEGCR
Experimental: as §1, §2

In the case of `O=C(Cn1c(=O)ccc2cc(C(F)(F)F)ccc21)Nc1scc(Br)c1-c1nnc[nH]1` [IGP001, N-(4-bromo-3-(1H-1,2,4-triazol-5-yl)thiophen-2-yl)-2-(2-oxo-6-(trifluoromethyl)quinolin-1(2H)-yl)acetamide], the “deposited collagen in the lungs (Masson's Trichrome stain)” value [1] is reported as “significantly reduced deposited collagen”, the collagen deposition [2] is reported as “significant reductions in collagen deposition” and the “collagen type 1 protein and mRNA expression” value [2] is reported as “significant reductions in collagen deposition, and collagen type 1 protein and mRNA expression”. For the same compound, the IC50 (JNK1) was < 100 nM, the “deposited collagen (Masson's trichrome stain)” value [3] was “reduced deposited collagen” and the “TGF-β1-induced JNK phosphorylation” value (JNK) was “suppress TGF-β1-induced JNK phosphorylation in a dose-dependent fashion”. For the same compound, the “non-alcoholic fatty liver disease activity score” value ([4]; thioacetamide-induced NASH model) was “significantly reduce the non-alcoholic fatty liver disease activity score”, the collagen deposition ([4]; thioacetamide-induced model) was “significant reductions in collagen deposition” and the “collagen type 1 protein and mRNA expression” value ([4]; thioacetamide-induced model) was “significant reductions in collagen deposition, and collagen type 1 protein and mRNA expression”. The “plasma compound levels versus cellular EC50” value [5] was “sufficient compound in the plasma of treated animals to exceed cellular EC50 in the periphery” and the IC50 (JNK2) was < 100 nM.
